In article PMC3511402, “Structural and Biochemical Studies on ATP Binding and Hydrolysis by the Escherichia coli RNA Chaperone Hfq” (PLoS ONE, 2012):

Columns and labels:
full length E. coli Hfq = target: T1, full length E. coli Hfq (Escherichia coli, UniProt P0A6X3); test: EMSA competition with […]'-labelled poly(A)[…] RNA; type: binding; details: 5 nM poly(A)27, 40 nM Hfq hexamer, pH 7.5, 2 mM MgOAc, room temperature; distal site competition
T1 construct: full length, no added His tag (native histidines); plasmid pUH5 in E. coli AM111F' (printed for the ATPase preparations); hexamer

Hfq65 = target: T2, Hfq65 (Escherichia coli, UniProt P0A6X3); test: X-ray crystal structure, […] Å; type: binding; details: distal-face R-sites, four of six sites occupied; ATP 1:1 per subunit; Hepes pH ~7.5
T2 construct: gene hfq; C-terminally truncated, aa 1-65; plasmid pUHfq65 expressed in E. coli hfq- strain AM111F'; untagged; hexamer
T2 sequence (P0A6X3 1-65): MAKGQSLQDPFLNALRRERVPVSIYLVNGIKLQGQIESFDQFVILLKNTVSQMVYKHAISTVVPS

T1 sequence (P0A6X3 2-102): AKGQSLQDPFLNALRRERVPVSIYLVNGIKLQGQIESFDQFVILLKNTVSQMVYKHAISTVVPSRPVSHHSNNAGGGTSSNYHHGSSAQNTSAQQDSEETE

% RNA released at 10 mM ATP (full length E. coli Hfq): ~ 50%
Compound: Nc1ncnc2c1ncn2[C@@H]1O[C@H](COP(=O)(O)OP(=O)(O)OP(=O)(O)O)[C@@H](O)[C@H]1O [ATP]
X-ray crystal structure, 2.15 Å (Hfq65): electron density corresponding to the ATP molecules was observed in four out of six R-sites
